# Experimental data reported in paper PMC5341405, “Lapachol, a compound targeting pyrimidine metabolism, ameliorates experimental autoimmune arthritis” (Arthritis Research & Therapy, 2017).
# Columns and labels:
# human CD4 T cells [1] = assay: Proliferation assay of human CD4 T cells (dye dilution, flow cytometry); type: cell-based
# From the text: (§1) Human CD4 T cells were purified from the whole blood of healthy volunteers. Briefly, peripheral blood mononuclear cells (PBMCs) were isolated by Percoll gradient (Sigma-Aldrich, St. Louis, MO, USA). CD4 T cells were isolated from PBMCs using Isolation Kit (Miltenyi Biotec, Bergisch Gladbach, Germany). For murine CD4 T cells, lymph nodes from naive C57BL/6 male mice were harvested, and CD4 T cells were purified using Isolation Kit (Miltenyi Biotec, Bergisch Gladbach, Germany) according to the manufacturer’s recommendations.
# (§2) A total of 1 × 10^5 CD4 T cells were labeled with 1 μM Dye Efluor® 670 (eBioscience, San Diego, CA, USA) for 15 min at 37 °C and cultured in RPMI-1640 10% FBS for 4 days in a 96-well U-bottom plate (Falcon, Franklin Lakes, New Jersey, USA) with the LAP salt diluted in RPMI-1640 (10, 30, and 100 μM), LEF diluted in RPMI-1640 (10, 30, and 100 μM; Arava®, Sanofi, France) and/or uridine (30, 100, and 300 μM; Sigma-Aldrich, St. Louis, MO, USA) in the presence of anti-CD3 (3 μg/ml) and anti-CD28 (1.5 μg/ml). The proliferation of CD4 T cells was determined by dye dilution in flow cytometry analysis. The results were expressed as the percentage of suppression using the following formula: [proliferation of CD4 T cells only – (proliferation of T CD4 cells with LEF or LAP)/proliferation of CD4 T cells only] × 100.
# human CD4 T cells [2] = assay: Annexin-V/propidium iodide staining for apoptotic cell death; type: cell-based; settings: human CD4 T cells, 10, 30, and 100 μM
# Protocol: We next assessed the antiproliferative effect of LAP. To this end, freshly isolated mouse CD4 T cells were labelled with Dye Efluor 670 and stimulated with anti-CD3/CD28 in the presence of LAP or LEF (10, 30, and 100 μM) for 4 days. […] We also investigated the effect of LAP in human CD4 T cells isolated from the peripheral blood of healthy donors. […] Additionally, we performed annexin-V/propidium iodide (PI) staining of human CD4 T cells treated with LAP or LEF to assess apoptotic cell death. […] Thus, the reduction of T-cell proliferation by LAP below 100 μM was primarily due to inhibition of the proliferative response rather than a reduction of cellular viability by toxicity.
# [3] = test system: antigen-induced arthritis (AIA) in C57BL/6 mice; assay: Antigen-induced arthritis (AIA); type: in vivo
# DHODH = test system: DHODH; set-up: method as in PMID 10658902; settings: cited from earlier work
# [4] = test system: collagen-induced arthritis (CIA) in DBA1/J mice; assay: Collagen-induced arthritis (CIA); type: in vivo
# Protocol: (§3) Male DBA/1 J mice were injected i.d. at the base of the tail with 200 μg bovine type II collagen (CII; a gift from Dr. David D. Brand, University of Tennessee Health Science Center) emulsified in Freund’s complete adjuvant (CFA) on day 0. Mice were boosted i.d. with CII (200 μg emulsified in Freund’s incomplete adjuvant (IFA)) on day 21. Mice were monitored daily for signs of arthritis. Scores were assigned based on erythema, swelling, or ankylosis present in each paw on a scale of 0 to 3, giving a maximum score of 12 per mouse. After arthritis induction, mice were treated orally with LAP (3 mg/kg and 10 mg/kg) or LEF (3 mg/kg) or saline daily. The clinical score was addressed every day after collagen boost. All mice were euthanized for histologic assessment of the hind limbs 4 weeks after the boost.
# Femur-tibial joints were collected 4 weeks after CII boost, fixed in 4% (vol/vol) buffered formalin and decalcified in 10% EDTA for 2–3 weeks. The tissues were then trimmed, dehydrated in ethanol, and embedded in paraffin for the preparation of the slides. Histological assessment was carried out following routine staining. Joint sections were stained with hematoxylin and eosin (H&E) to analyze synovitis (inflammatory cell influx and synovial hyperplasia) or Safranin-O to visualize proteoglycan depletion and cartilage destruction. The severity of the joint damage was scored according to the criteria described by Wang et al.: 0 = no destruction; 1 = minimal erosion; 2 = slight to moderate erosion in a limited area; 3 = more extensive erosion; 4 = general destruction.
# Interleukin (IL)-17 and interferon (IFN)-γ cytokines were measured by enzyme-linked immunosorbent assay (ELISA) from hind paw homogenate of an individual mouse using antibodies according to the manufacturer’s instructions (R&D Systems, Minneapolis, MN, USA). The results were expressed as pg of cytokine/mg of tissue.
# Myeloperoxidase (MPO) activity in tissue homogenates was used as an index of neutrophil infiltration into paws from CIA mice as previously described.
# [5] = Tolerability and serum liver enzymes during CIA protocol; type: in vivo, DBA1/J mice
# Protocol: as §3
# Serum concentrations of aspartate aminotransferase (AST) or alanine aminotransferase (ALT) were measured using commercial kits according to the manufacturer’s instructions (ID Labs Biotechnology Inc., London, Canada).
# murine CD4 T cells = assay: Proliferation assay of murine CD4 T cells (dye dilution, flow cytometry); type: cell-based, C57BL/6 mice
# From the text: as §1, §2
# human keratinocytes = test system: human keratinocytes; set-up: method as in PMID 10479319; settings: in vitro; cited from earlier work
# [6] = 10, 30, and 100 μM, 4 days, anti-CD3/CD28
# [7] = 10 mg/kg orally, recall with mBSA 100 μg/ml for 96 h
compound,measurement,setting,value
"CC(C)=CCC1=C(O)C(=O)c2ccccc2C1=O [LAP, 2-hydroxy-3-(3methyl-2-butenyl)-1,4-naphthoquinone]",effect on proliferation of human CD4 T cells,human CD4 T cells [1]; [6],dose-dependent inhibition of human T-cell proliferation
same,suppression of proliferation compared with LEF,"human CD4 T cells [1]; human CD4 T cells, same equivalent concentrations",greater ability to suppress the proliferation
same,antiproliferative effect in the presence of uridine,"human CD4 T cells [1]; human CD4 T cells, uridine 30, 100, and 300 μM",uridine was able to reverse the antiproliferative effect of LAP in a dose-dependent manner
same,"toxicity (apoptotic cell death, annexin-V/PI)",human CD4 T cells [2],only the highest concentration of LAP (100 μM) was toxic
same,leucocyte infiltration into the knee joint,"[3]; 10 mg/kg orally once a day over 9 days, 6 h after mBSA challenge",remarkable reduction in leucocyte infiltration
same,serum levels of anti-mBSA total IgG,"[3]; 10 mg/kg orally once a day over 9 days, day 21",did not find differences
same,mBSA-specific production of IFN-γ by draining lymph node cells and splenocytes,[3]; [7],significantly reduced
same,mBSA-specific production of IL-17 by draining lymph node cells and splenocytes,[3]; [7],significantly reduced
same,inhibition of DHODH activity,DHODH,can inhibit DHODH activity
same,severity of arthritis (clinical score and number of affected paws),"[4]; 3 mg/kg and 10 mg/kg orally daily, both doses",markedly attenuated the severity of arthritis
same,IL-17A levels in hind paws,"[4]; dose of 10 mg/kg orally daily, 4 weeks after boost, ELISA",significant reduction in IL-17A levels
same,MPO activity in hind paws (neutrophil infiltration),"[4]; orally daily, 4 weeks after boost, vs vehicle-treated CIA mice",reduced MPO activity
same,"histopathological features of arthritis severity (H&E, Safranin-O, knee joint)","[4]; orally daily, 4 weeks after boost, vs vehicle-treated group",markedly reduced all histopathological features of arthritis severity
same,serum levels of ALT or AST,"[5]; 3 mg/kg and 10 mg/kg orally daily, CIA protocol, 4 wk after boost",did not alter the serum levels of ALT or AST
same,"tolerability (general symptoms of toxicity: piloerection, diarrhea, weight loss, prostration)","[5]; 3 mg/kg and 10 mg/kg orally once a day for 4 weeks, CIA mice",well tolerated without apparent side effects
same,effect on proliferation of murine CD4 T cells,murine CD4 T cells; [6],inhibited the proliferation of murine CD4 T cells in a dose-dependent manner
same,suppression of proliferation compared with LEF,"murine CD4 T cells; murine CD4 T cells, same equivalent concentrations",greater ability to suppress the proliferation
same,proliferation of human keratinocytes,human keratinocytes,can reduce proliferation of the human keratinocytes
